# Laboratory results reported in paper PMC9381564 (Plant and Cell Physiology, 2022).
# Biological target: T1, SoGDH (spinach L-galactose dehydrogenase) (Spinacia oleracea, UniProt Q6BDJ2)
# T1 sequence (Q6BDJ2 1-322): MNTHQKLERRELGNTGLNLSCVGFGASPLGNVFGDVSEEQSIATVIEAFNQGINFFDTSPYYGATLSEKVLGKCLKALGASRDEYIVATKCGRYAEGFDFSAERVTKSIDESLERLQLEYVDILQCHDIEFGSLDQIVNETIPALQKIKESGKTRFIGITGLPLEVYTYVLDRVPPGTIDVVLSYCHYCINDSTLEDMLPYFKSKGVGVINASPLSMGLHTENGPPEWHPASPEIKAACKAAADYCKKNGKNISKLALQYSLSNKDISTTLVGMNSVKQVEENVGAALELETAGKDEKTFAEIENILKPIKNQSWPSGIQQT
# Assay: X-ray crystal structure, co-crystallisation, […] A
# Format: binding
# Conditions: 5 mM NAD+, 1 mM L-galactose in drop, Bis-Tris pH 5.5
compound,measurement,value
NC(=O)c1ccc[n+]([C@@H]2O[C@H](COP(=O)(O)OP(=O)(O)OC[C@H]3O[C@@H](n4cnc5c(N)ncnc54)[C@H](O)[C@@H]3O)[C@@H](O)[C@H]2O)c1 [NAD^+],"X-ray crystal structure, co-crystallisation, 1.75 A",crystals of SoGDH complexed with the cofactor NAD^+ were obtained using co-crystallization
